The test system of series [1] is Escherichia coli. The experiment in a line: Antibacterial activity against Escherichia coli at 75 ug/ml after 18 to 24 hrs by disc diffusion method. The series is classed as functional. The note with it: read-out: IZ. (A growth-free zone around the sample is the usual read-out of agar diffusion tests.)
Series [2] relates to Mycobacterium tuberculosis. The series is described as follows: Antimycobacterial activity against Mycobacterium tuberculosis H37Rv ATCC 27294 after 5 days by microplate alamar blue assay. The series is classed as functional. The note with it: H37Rv ATCC 27294, 120 h. Background: Alamar Blue is a resazurin reagent that responds to reducing activity.
Series [3] deals with Pseudomonas aeruginosa. The experiment in a line: Antibacterial activity against Pseudomonas aeruginosa at 50 ug/ml after 18 to 24 hrs by disc diffusion method. The series is classed as functional. As to conditions: read-out: IZ.
Another series has as its system Vero. The experiment in a line: Cytotoxicity against African green monkey Vero cells after 72 hrs by MTT assay. The note with it: Chlorocebus sabaeus. The series is classed as cell-based. (In general: Formazan colour is commonly taken as a measure of viable cells.)
The test system of series [4] is Staphylococcus aureus. The series is described as follows: Antibacterial activity against Staphylococcus aureus at 50 ug/ml after 18 to 24 hrs by disc diffusion method. The series is classed as functional. The note with it: read-out: IZ.
Series [5] deals with Escherichia coli. The experiment in a line: Antibacterial activity against Escherichia coli at 50 ug/ml after 18 to 24 hrs by disc diffusion method. As to conditions: read-out: IZ. The series is classed as functional.
Series [6] is described as follows: Selectivity index, ratio of IC50 for African green monkey Vero cells to MIC for Mycobacterium tuberculosis H37Rv ATCC 27294. The series is classed as toxicity, cell-based.
In series [7] the test system is Staphylococcus aureus. The series is described as follows: Antibacterial activity against Staphylococcus aureus at 75 ug/ml after 18 to 24 hrs by disc diffusion method. As to conditions: read-out: IZ. The series is classed as functional.
The subject of series [8] is Pseudomonas aeruginosa. The experiment in a line: Antibacterial activity against Pseudomonas aeruginosa at 75 ug/ml after 18 to 24 hrs by disc diffusion method. The series is classed as functional. The note with it: read-out: IZ.

In brackets after ≈: the same amount, converted by molar mass.

One may read the MIC as the lowest concentration found to suppress growth. Usually IC50 stands for the concentration that gives 50% inhibition. On to `N=c1sc(-c2ccc(F)cc2)nn1CC(=O)N1c2ccccc2Sc2ccc(Cl)cc21`, for which the zone of inhibition at 75 µg/mL with Escherichia coli [1] stood at 12 mm; with Staphylococcus aureus [7], 9 mm; in the series with Pseudomonas aeruginosa [8], 10 mm. The molecule also displayed an MIC in [2] of 3.12 µg/mL (≈ 6.66 µM). Also, the zone of inhibition at 50 µg/mL in the series with Pseudomonas aeruginosa [3] was determined as 7 mm; with Staphylococcus aureus [4], 5 mm; with Escherichia coli [5], 7 mm. The same molecule showed an IC50 in the series on Vero of 465 µg/mL (≈ 992 µM). The selectivity ratio in series [6] was found to be 149.
Consider `CCCc1nn(CC(=O)N2c3ccccc3Sc3ccc(C(F)(F)F)cc32)c(=N)s1`, for which the figures for the zone of inhibition at 75 µg/mL in the series on Escherichia coli [1], in the series with Staphylococcus aureus [7] and with Pseudomonas aeruginosa [8] were 9 mm, 11 mm and 7 mm, respectively. For the same molecule, in [2], the MIC came to 3.12 µg/mL (≈ 6.94 µM). For the same molecule, the figures for the zone of inhibition at 50 µg/mL with Pseudomonas aeruginosa [3], with Staphylococcus aureus [4] and in the series on Escherichia coli [5] were 3 mm, 7 mm and 6 mm, respectively. The molecule further showed an IC50 with Vero of 238 µg/mL (≈ 529 µM). The selectivity ratio in [6] was found to be 76.4.
Consider `CCCc1nn(CC(=O)N2c3ccccc3Sc3ccccc32)c(=N)s1`, for which the figures for the zone of inhibition at 75 µg/mL in the series on Escherichia coli [1], in the series with Staphylococcus aureus [7] and with Pseudomonas aeruginosa [8] were 14 mm, 16 mm and 15 mm, respectively. In [2], this molecule registered an MIC of 1.6 µg/mL (≈ 4.18 µM). In addition, the zone of inhibition at 50 µg/mL with Pseudomonas aeruginosa [3] is 11 mm; in the series with Staphylococcus aureus [4], 12 mm; in the series with Escherichia coli [5], 11 mm. Half-maximal inhibition in the series on Vero (IC50) required 252 µg/mL (≈ 658 µM). Also, the selectivity ratio in [6] came out at 157.
Take `N=c1sc(-c2ccc(F)cc2)nn1CC(=O)N1c2ccccc2Sc2ccc(C(F)(F)F)cc21`: the values for the zone of inhibition at 75 µg/mL in the series with Escherichia coli [1], in the series on Staphylococcus aureus [7] and in the series on Pseudomonas aeruginosa [8] were 11 mm, 10 mm and 13 mm, respectively. The lowest concentration to inhibit growth in [2] (MIC) was 1.6 µg/mL (≈ 3.18 µM). The zone of inhibition at 50 µg/mL with Pseudomonas aeruginosa [3] worked out at 7 mm; in the series on Staphylococcus aureus [4], 7 mm; in the series with Escherichia coli [5], 9 mm. The molecule further came in with an IC50 in the series on Vero of 733 µg/mL (≈ 1460 µM). Moreover, in [6], the selectivity ratio was 458.
For `Cc1nn(CC(=O)N2c3ccccc3Sc3ccccc32)c(=N)s1`, the values for the zone of inhibition at 75 µg/mL with Escherichia coli [1], with Staphylococcus aureus [7] and in the series with Pseudomonas aeruginosa [8] were 25 mm, 26 mm and 25 mm, respectively. This molecule came in with an MIC in series [2] of 1.6 µg/mL (≈ 4.51 µM). For the same molecule, the figures for the zone of inhibition at 50 µg/mL in the series with Pseudomonas aeruginosa [3], in the series on Staphylococcus aureus [4] and with Escherichia coli [5] were 20 mm, 22 mm and 20 mm, respectively. This molecule also yielded an IC50 in the series with Vero of 433 µg/mL (≈ 1220 µM). Also, the selectivity ratio in [6] worked out at 271.
In the case of `Cc1nn(CC(=O)N2c3ccccc3Sc3ccc(C(F)(F)F)cc32)c(=N)s1`, the zone of inhibition at 75 µg/mL in the series on Escherichia coli [1] amounted to 20 mm; in the series with Staphylococcus aureus [7], 17 mm; with Pseudomonas aeruginosa [8], 15 mm. The molecule further had an MIC in [2] of 1.6 µg/mL (≈ 3.79 µM). For the same molecule, the zone of inhibition at 50 µg/mL in the series on Pseudomonas aeruginosa [3] came to 12 mm; with Staphylococcus aureus [4], 14 mm; in the series with Escherichia coli [5], 15 mm. In the series on Vero, this molecule registered an IC50 of 350 µg/mL (≈ 828 µM). In addition, the selectivity ratio in series [6] was 219.
